Results on one compound are retold here after US6632981B1, “DNA sequences encoding polypeptides having beta-1,3-glucanase activity” (Novartis Finance Corporation, priority 1988, dated 2003).

This assay deals with chimeric PR-1a/GUS gene. Briefly: GUS induction in transformed tomato callus. The assay is classed as cell-based. As to conditions: 250 g/l spray, 21 hours. Here is the method: Agrobacterium strains containing the appropriate vectors as described above (e.g. CIB270, CIB271, CIB272, CIB273, pCIB271×15955, pCIB271 X A208, pCIB271 X A281, pCIB271 X A4, pCIB272 X 15955, pCIB272 X A208, pCIB272 X A281, pCIB272 X A4, pCIB273 X 15955, pCIB273 X A208, pCIB273 X A281, and pCIB273 X A4) are grown as described in Example 112. The bacteria, diluted to an OD600 of 0.2-0.4, are then used for inoculation of stems of tomato seedlings prepared as described below.
Tomato seeds are soaked 20 min in 10% chlorox and rinsed with sterile water. […]
After one week the inoculated stems are cut and placed on 0.7% agar containing MS salts, 3% sucrose, […] 6-benzylaminopurine, 100 µg/ml carbenicillin, 100 µg/ml mefoxim, and 50 µg/ml kanamycin. […] The callus is transferred to fresh media every two weeks until sufficient quantity is obtained for 4 plates. […]
The reactions are carried out in the wells of ELISA plates by mixing 5-25 l extract with 120-100 l GUS assay buffer (50 mM sodium phosphate buffer pH 7.0, 0.1% Triton X-100, 10 mM β-mercaptoethanol) containing 4-methyl umbelliferyl glucuronide (MU) at a final concentration of 2 mM in a total volume of 125 l. […] The concentration of fluorescent indicator released is determined by reading the plate on a Flow Labs Fluoroskan II ELISA plate reader.

Each structure is given as a SMILES string.

`COC(=O)c1cccc2nnsc12` [Methyl benzo-1,2,3-thiadiazole-7-carboxylate]: the GUS activities by setting is: (tomato callus transformed with CIB271, H2O spray 17.2) 56.1 pKat MU/mg protein; (tomato callus transformed with CIB273 X A4, H2O spray 4.6) 22.1 pKat MU/mg protein.
